From patent US20260159533A1, “INHIBITORS OF COMPLEMENT FACTORS AND USES THEREOF” (Annexon, Inc., priority 2022, published 2026) come the findings set out here.

Structures are written as SMILES. Structures can show the parent of a compound that is named as a salt.

The test addresses T1, human C1s protein (Homo sapiens, UniProt P09871).
T1 construct: purchased R&D Systems or Complement Technologies 2060-SE or A104
T1 sequence (P09871 16-688): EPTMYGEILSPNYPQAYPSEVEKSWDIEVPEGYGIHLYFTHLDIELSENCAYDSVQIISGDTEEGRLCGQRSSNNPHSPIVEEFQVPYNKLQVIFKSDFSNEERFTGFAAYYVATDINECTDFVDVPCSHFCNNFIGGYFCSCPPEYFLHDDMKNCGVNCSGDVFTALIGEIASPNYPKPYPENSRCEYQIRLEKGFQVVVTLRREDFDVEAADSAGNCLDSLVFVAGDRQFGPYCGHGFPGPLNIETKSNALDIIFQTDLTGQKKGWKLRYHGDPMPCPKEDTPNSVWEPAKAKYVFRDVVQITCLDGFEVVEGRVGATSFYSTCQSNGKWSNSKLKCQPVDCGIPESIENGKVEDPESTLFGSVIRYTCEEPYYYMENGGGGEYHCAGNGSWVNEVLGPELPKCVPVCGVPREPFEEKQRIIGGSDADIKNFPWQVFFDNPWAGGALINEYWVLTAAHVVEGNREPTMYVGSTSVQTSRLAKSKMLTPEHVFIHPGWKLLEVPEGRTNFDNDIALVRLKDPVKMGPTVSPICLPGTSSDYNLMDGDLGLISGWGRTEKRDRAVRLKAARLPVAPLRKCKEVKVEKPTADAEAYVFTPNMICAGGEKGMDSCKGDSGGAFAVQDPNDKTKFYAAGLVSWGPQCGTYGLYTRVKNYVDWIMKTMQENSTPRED
Briefly: recombinant C1s enzymatic assay (YLGR-Rh110-dPro substrate hydrolysis, fluorescence). In kind it is biochemical. The note with it: recombinant human C1s 2.5 nM, substrate YLGR-Rh110-dPro 20 μM, 15 min pre-incubation, 60 min RT; read-out: rec. hC11s pIC50 (converted). Here is the method: Compound testing in the purified or recombinant C1s enzymatic assay C1s is a serine protease; its enzymatic activity is measured in vitro by the hydrolysis of the synthetic substrate YLGR-Rh110-dPro (Kerr F K, O'Brien G, Quinsey N S, Whisstock J C, Boyd S, de la Banda M G, Kaiserman D, Matthews A Y, Bird P I, Pike R N. Elucidation of the substrate specificity of the Cis protease of the classical complement pathway. J. Biol. Chem. (2005) 280, 39510-39514). The enzyme cleaves the substrate with the release of Rh110 which is highly fluorescent. Cis inhibitors prevent the hydrolysis of the substrate thus resulting in a decrease of the signal.
The recombinant C1s enzymatic assay is performed using the human C1s protein (R&D Systems, 2060-SE or Complement Technologies, A104). The assay buffer composition is: 50 mM HEPES pH 7.5 (Sigma, H3375), 150 mM NaCl (Sigma, S7653), 0.2% PEG 8000 (VWR, AA43443-22), 0.01% Pluronic F127 (Sigma, P2243). On the day of the experiment 0.1 mg/mL BSA (Sigma, B4287) is added fresh to the buffer. The test item stock solutions are serially diluted 1:3 or 1:4 or 1:5 with DMSO, 11-point curves, in a 384-well compound plate. Nafamostat concentration curve is always included in the assay plate as a reference control.
The assay plate is prepared by dispensing 0.25 μL from compound plate into a 384-well black assay plate (assay plate, Greiner Fluotrac 200, 781076, VWR 736-0140). The high controls are prepared dispensing in 0.25 μL DMSO in column 23, rows AH or AP and low controls with 0.25 μL of 0.1 μM Nafamostat. Cis solution is prepared as 2× of the 2.5 nM final assay concentration. The YLGR-Rh110-dPro substrate is prepared as 2× of the final assay concentration of 20 μM. 5 μL/well of 2× enzyme solution is dispensed and pre-incubated for 15 min with the compounds. The enzymatic reaction is the started with 5 μL/well of the 2× substrate solution. The plate is incubated for 60 min RT in the dark and fluorescence is measured (ex 485/em 535 nm) using an Envision (PerkinElmer) or an equivalent instrument.
As for `CC1COc2cc(-n3cccn3)c(-c3ccc4c(N)cnnc4c3)cc2B(O)O1` (single isomer, unassigned; enantiomer 1) [Example 72, 7-(1-hydroxy-3-methyl-7-pyrazol-1-yl-3,4-dihydro-2,5,1-benzodioxaborepin-8-yl)cinnolin-4-amine enantiomer 1], the IC50 is 1.7 nM.
In the case of `CC1COc2cc(-n3cccn3)c(-c3ccc4c(N)cnnc4c3)cc2B(O)O1` (single isomer, unassigned; enantiomer 2) [Example 73, 7-(1-hydroxy-3-methyl-7-pyrazol-1-yl-3,4-dihydro-2,5,1-benzodioxaborepin-8-yl)cinnolin-4-amine enantiomer 2] it was 1.51 nM; in that of `Nc1cnnc2cc(-c3cc(B(O)O)ccc3-n3cccn3)ccc12` [Example 1, [3-(4-aminocinnolin-7-yl)-4-(1H-pyrazol-1-yl)phenyl]boronic acid], 3.24 nM.
The result for `CNC(=O)c1cnn(-c2ccc(B(O)O)cc2-c2ccc3c(N)cnnc3c2)c1` [Example 2, [3-(4-aminocinnolin-7-yl)-4-[4-(methylcarbamoyl)-1H-pyrazol-1-yl]phenyl]boronic acid formic acid salt] reads 3.89 nM; that for `Nc1cnnc2cc(-c3cc(B(O)O)ccc3-n3ccnc3)ccc12` [Example 3, [3-(4-aminocinnolin-7-yl)-4-(1H-imidazol-1-yl)phenyl]boronic acid], 66.1 nM.
The result for `COC(=O)c1cn(-c2ccc(B(O)O)cc2-c2ccc3c(N)cnnc3c2)cn1` [Example 4, [3-(4-aminocinnolin-7-yl)-4-[4-(methoxycarbonyl)-1H-imidazol-1-yl]phenyl]boronic acid] reads 38.9 nM; that for `Nc1cnnc2cc(-c3cc(B(O)O)ccc3-n3cncn3)ccc12` [Example 5, [3-(4-aminocinnolin-7-yl)-4-(1H-1,2,4-triazol-1-yl)phenyl]boronic acid formic acid salt], 1.32 nM.
With `CNC(=O)c1ccn(-c2ccc(B(O)O)cc2-c2ccc3c(N)cnnc3c2)n1` [Example 6, [3-(4-aminocinnolin-7-yl)-4-[3-(methylcarbamoyl)-1H-pyrazol-1-yl]phenyl]boronic acid], the IC50 was 29.5 nM.
Take `Nc1cnnc2cc(-c3cc(B(O)O)ccc3-c3cc[nH]n3)ccc12` [Example 7, [3-(4-aminocinnolin-7-yl)-4-(1H-pyrazol-3-yl)phenyl]boronic acid]: the IC50 is 2.63 nM.
In the case of `Cc1cc(-n2cccn2)c(-c2ccc3c(N)cnnc3c2)cc1B(O)O` [Example 8, [5-(4-aminocinnolin-7-yl)-2-methyl-4-(1H-pyrazol-1-yl)phenyl]boronic acid] it was 14.8 nM.
Take `Nc1cnnc2cc(-c3cc(B(O)O)ccc3-n3cc(C(F)F)cn3)ccc12` [Example 9, [3-(4-aminocinnolin-7-yl)-4-[4-(difluoromethyl)-1H-pyrazol-1-yl]phenyl]boronic acid]: the IC50 was 1.74 nM.
`CC(=O)Nc1cnn(-c2ccc(B(O)O)cc2-c2ccc3c(N)cnnc3c2)c1` [Example 10, [3-(4-aminocinnolin-7-yl)-4-(4-acetamido-1H-pyrazol-1-yl)phenyl]boronic acid formic acid salt]: the IC50 was 1.78 nM.
The result for `Nc1cnnc2cc(-c3cc(B(O)O)ccc3-n3cc(F)cn3)ccc12` [Example 11, [3-(4-aminocinnolin-7-yl)-4-(4-fluoro-1H-pyrazol-1-yl)phenyl]boronic acid formic acid salt] reads 1.45 nM; that for `Nc1cnnc2cc(-c3cc(B(O)O)ccc3-n3ncnn3)ccc12` [Example 12, [3-(4-aminocinnolin-7-yl)-4-(2H-1,2,3,4-tetrazol-2-yl)phenyl]boronic acid], 0.589 nM.
In the case of `Nc1cnnc2cc(-c3cc(B(O)O)cnc3-n3cccn3)ccc12` [Example 13, [5-(4-aminocinnolin-7-yl)-6-(1H-pyrazol-1-yl)pyridin-3-yl]boronic acid], the IC50 is 4.47 nM.
In the case of `Nc1cnnc2cc(-c3cc(B(O)O)ccc3-n3ccc(C(F)F)n3)ccc12` [Example 14, [3-(4-aminocinnolin-7-yl)-4-[3-(difluoromethyl)-1H-pyrazol-1-yl]phenyl]boronic acid formic acid salt] it was 14.8 nM; in that of `Nc1cnnc2cc(-c3cc(B(O)O)ccc3-n3nccn3)ccc12` [Example 15, [3-(4-aminocinnolin-7-yl)-4-(2H-1,2,3-triazol-2-yl)phenyl]boronic acid formic acid salt], 0.933 nM; in that of `Nc1cnnc2cc(-c3cc(B(O)O)ccc3-n3ccnn3)ccc12` [Example 16, [3-(4-aminocinnolin-7-yl)-4-(1H-1,2,3-triazol-1-yl)phenyl]boronic acid], 3.98 nM.
In the case of `N#Cc1ccn(-c2ccc(B(O)O)cc2-c2ccc3c(N)cnnc3c2)n1` [Example 17, [3-(4-aminocinnolin-7-yl)-4-(3-cyano-1H-pyrazol-1-yl)phenyl]boronic acid] it was 6.31 nM; in that of `Cc1nc(-c2ccc(B(O)O)cc2-c2ccc3c(N)cnnc3c2)ns1` [Example 18, [3-(4-aminocinnolin-7-yl)-4-(5-methyl-1,2,4-thiadiazol-3-yl)phenyl]boronic acid], 1.62 nM.
In the case of `Nc1cnnc2cc(-c3cc(B(O)O)ccc3-c3cc(C(F)(F)F)[nH]n3)ccc12` [Example 19, [3-(4-aminocinnolin-7-yl)-4-[5-(trifluoromethyl)-1H-pyrazol-3-yl]phenyl]boronic acid] it was 34.7 nM; in that of `Nc1cnnc2cc(-c3cc(B(O)O)ccc3-c3nc[nH]n3)ccc12` [Example 20, [3-(4-aminocinnolin-7-yl)-4-(1H-1,2,4-triazol-3-yl)phenyl]boronic acid], 0.776 nM.
For `CS(=O)(=O)Nc1cnn(-c2ccc(B(O)O)cc2-c2ccc3c(N)cnnc3c2)c1` [Example 21, [3-(4-aminocinnolin-7-yl)-4-(4-methanesulfonamido-1H-pyrazol-1-yl)phenyl]boronic acid], the IC50 is 1.86 nM.
In the case of `N#Cc1ccnn1-c1ccc(B(O)O)cc1-c1ccc2c(N)cnnc2c1` [Example 22, [3-(4-aminocinnolin-7-yl)-4-(5-cyano-1H-pyrazol-1-yl)phenyl]boronic acid] it was 0.851 nM; in that of `COc1cc(-n2cccn2)c(-c2ccc3c(N)cnnc3c2)cc1B(O)O` [Example 23, [5-(4-aminocinnolin-7-yl)-2-methoxy-4-(1H-pyrazol-1-yl)phenyl]boronic acid], 1.07 nM.
In the case of `Nc1cnnc2cc(-c3cc(B(O)O)ccc3-c3nccs3)ccc12` [Example 24, [3-(4-aminocinnolin-7-yl)-4-(1,3-thiazol-2-yl)phenyl]boronic acid formic acid salt] it was 2.57 nM; in that of `Nc1cnnc2cc(-c3cc(B(O)O)ccc3-c3ncco3)ccc12` [Example 25, [3-(4-aminocinnolin-7-yl)-4-(1,3-oxazol-2-yl)phenyl]boronic acid formic acid salt], 0.912 nM.
The result for `Nc1cnnc2cc(-c3cc(B(O)O)ccc3-c3ncccn3)ccc12` [Example 26, [3-(4-aminocinnolin-7-yl)-4-(pyrimidin-2-yl)phenyl]boronic acid formic acid salt] reads 7.24 nM; that for `Nc1cnnc2cc(-c3cc(B(O)O)c(OC(F)F)cc3-n3cccn3)ccc12` [Example 27, [5-(4-aminocinnolin-7-yl)-2-(difluoromethoxy)-4-(1H-pyrazol-1-yl)phenyl]boronic acid formic acid salt], 4.47 nM.
